Assays:
[1] = target: T1, NaV1.7 (Homo sapiens, UniProt Q15858); test: Patchliner Electrophysiological In-Vitro Assay (NaV1.7); type: cell-based; conditions: Patchliner patch clamp, HEK293, holding at V1/2
T1 construct: expressed in transfected cells
Protocol: In vitro assays were performed in recombinant cell line that stably express a heterotrimeric protein of interest from an introduced nucleic acid encoding the alpha subunit (hNav1.7, SCN9A), the beta subunit (SCNB1) and the beta subunit (SCNB2). The cell line was engineered using Human Embryonic Kidney 293 cells as host background. Additional cell lines stably expressing recombinant Nav1.7 or Nav1.5 alpha subunit alone or in combination with various beta subunits can also be used in in-vitro assays.
The recording of sodium current from stable HEK293 cell lines expressing NaV1.7 or NaV1.5 was done on a Patchliner® instrument, Nanion Technologies. The Patchliner® is a fully automated bench-top patch clamp platform and can record simultaneously from up to eight single cells with GΩ seals.
For patch-clamp experiments, cells were grown under standard culturing conditions in Dulbecco's Modified Eagles medium supplemented with 10% fetal bovine serum, glutamine and HEPES. Cells were harvested and kept in suspension for up to 4 hours with no significant change in quality or ability to patch. Whole cell patch clamp recordings were conducted according to Nanion's standard procedure for the Patchliner®. Experiments were conducted at room temperature.
Voltage protocols were designed to establish: 1) peak current amplitude (Imax), 2) test potential (Vmax) and 3) half-inactivation potential (V1/2) for each of the eight individual cells. To determine V1/2, a standard steady-state inactivation protocol was executed using a series of fifteen 500 ms depolarizing pre-pulses in 10 mV increments (starting at −130 mV) and immediately followed by a 10 ms test pulse to Vmax. To estimate test compound affinity to the inactivated state of sodium channel (Ki), the holding potential for each cell was set automatically to the V1/2 calculated from a steady-state inactivation data. The current was activated with the following voltage protocol: holding at V1/2 for 2-5 seconds, return to the −120 mV for 5-10 ms to relieve fast inactivation, stepping to test potential (Vmax) for 10-20 ms. This voltage protocol was repeated every 10 seconds to establish the baseline with 2-3 buffer additions followed by the test compound addition. The dose-dependent inhibition was analyzed using Nanion's Data Analysis Package.

[2] = target: T2, hNaV1.7 (Homo sapiens, UniProt Q15858); test: FDSS Membrane Potential In-Vitro Assay; type: cell-based; conditions: stimulation with veratridine and scorpion venom, read-out: NaV1.7 IC50
T2 construct: expressed in transfected cells

[3] = target: T3, CYP3A4 (Homo sapiens, UniProt P08684); test: In-Vitro Cytochrome P450 (CYP450) Inhibition Assay (Vivid CYP450); type: in vitro ADME; conditions: CYP3A4 enzyme complex (Vivid CYP450, Invitrogen), 6 μM test concentration
T3 construct: purchased Invitrogen
Protocol: We evaluated interaction of drug candidates with cytochrome P450 enzymes which are a major determinant of drug clearance via oxidative metabolism using a high throughput compatible, fluorescence based CYP450 screening assay (Vivid® CYP450, Invitrogen) according to manufacturer's directions.
In brief, test compounds at four different concentrations (μM—6.0, 2.0, 0.7, 0.2), a positive control (Ketoconazole) and a solvent control were incubated at room temperature in unique wells of a 96-well microtiter plate with CYP3A4 enzyme complex for 20 minutes. A pre-read fluorescence (Ex−485 nm/Em−530 nm) was measured at the start of the incubation using a Tecan Safire^2 microplate reader-monochromator to determine background fluorescence. At the end of the incubation period, enzyme substrate and co-enzyme were added and the reaction was kinetically monitored for 1 hour by measuring fluorescence every minute. Effect of test compounds on inhibition of CYP3A4 metabolism of provided substrate was determined by calculating the ratio of the effective reaction rate in presence of test compound to that in the absence of inhibitor.

T3 sequence (P08684 2-503 limits assumed): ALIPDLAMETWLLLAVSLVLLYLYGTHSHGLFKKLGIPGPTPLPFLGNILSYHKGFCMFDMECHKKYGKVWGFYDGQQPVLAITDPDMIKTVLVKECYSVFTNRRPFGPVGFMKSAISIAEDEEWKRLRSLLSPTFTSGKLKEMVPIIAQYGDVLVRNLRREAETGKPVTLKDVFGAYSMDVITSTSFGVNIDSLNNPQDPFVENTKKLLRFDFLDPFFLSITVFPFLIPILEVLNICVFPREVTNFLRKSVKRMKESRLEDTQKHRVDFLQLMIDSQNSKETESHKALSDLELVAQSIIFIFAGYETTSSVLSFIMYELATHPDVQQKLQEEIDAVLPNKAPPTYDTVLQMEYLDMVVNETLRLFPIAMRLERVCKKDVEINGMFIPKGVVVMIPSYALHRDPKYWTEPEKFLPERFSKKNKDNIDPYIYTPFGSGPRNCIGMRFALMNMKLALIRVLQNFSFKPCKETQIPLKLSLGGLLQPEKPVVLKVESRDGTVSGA
T2 sequence (Q15858 whole entry): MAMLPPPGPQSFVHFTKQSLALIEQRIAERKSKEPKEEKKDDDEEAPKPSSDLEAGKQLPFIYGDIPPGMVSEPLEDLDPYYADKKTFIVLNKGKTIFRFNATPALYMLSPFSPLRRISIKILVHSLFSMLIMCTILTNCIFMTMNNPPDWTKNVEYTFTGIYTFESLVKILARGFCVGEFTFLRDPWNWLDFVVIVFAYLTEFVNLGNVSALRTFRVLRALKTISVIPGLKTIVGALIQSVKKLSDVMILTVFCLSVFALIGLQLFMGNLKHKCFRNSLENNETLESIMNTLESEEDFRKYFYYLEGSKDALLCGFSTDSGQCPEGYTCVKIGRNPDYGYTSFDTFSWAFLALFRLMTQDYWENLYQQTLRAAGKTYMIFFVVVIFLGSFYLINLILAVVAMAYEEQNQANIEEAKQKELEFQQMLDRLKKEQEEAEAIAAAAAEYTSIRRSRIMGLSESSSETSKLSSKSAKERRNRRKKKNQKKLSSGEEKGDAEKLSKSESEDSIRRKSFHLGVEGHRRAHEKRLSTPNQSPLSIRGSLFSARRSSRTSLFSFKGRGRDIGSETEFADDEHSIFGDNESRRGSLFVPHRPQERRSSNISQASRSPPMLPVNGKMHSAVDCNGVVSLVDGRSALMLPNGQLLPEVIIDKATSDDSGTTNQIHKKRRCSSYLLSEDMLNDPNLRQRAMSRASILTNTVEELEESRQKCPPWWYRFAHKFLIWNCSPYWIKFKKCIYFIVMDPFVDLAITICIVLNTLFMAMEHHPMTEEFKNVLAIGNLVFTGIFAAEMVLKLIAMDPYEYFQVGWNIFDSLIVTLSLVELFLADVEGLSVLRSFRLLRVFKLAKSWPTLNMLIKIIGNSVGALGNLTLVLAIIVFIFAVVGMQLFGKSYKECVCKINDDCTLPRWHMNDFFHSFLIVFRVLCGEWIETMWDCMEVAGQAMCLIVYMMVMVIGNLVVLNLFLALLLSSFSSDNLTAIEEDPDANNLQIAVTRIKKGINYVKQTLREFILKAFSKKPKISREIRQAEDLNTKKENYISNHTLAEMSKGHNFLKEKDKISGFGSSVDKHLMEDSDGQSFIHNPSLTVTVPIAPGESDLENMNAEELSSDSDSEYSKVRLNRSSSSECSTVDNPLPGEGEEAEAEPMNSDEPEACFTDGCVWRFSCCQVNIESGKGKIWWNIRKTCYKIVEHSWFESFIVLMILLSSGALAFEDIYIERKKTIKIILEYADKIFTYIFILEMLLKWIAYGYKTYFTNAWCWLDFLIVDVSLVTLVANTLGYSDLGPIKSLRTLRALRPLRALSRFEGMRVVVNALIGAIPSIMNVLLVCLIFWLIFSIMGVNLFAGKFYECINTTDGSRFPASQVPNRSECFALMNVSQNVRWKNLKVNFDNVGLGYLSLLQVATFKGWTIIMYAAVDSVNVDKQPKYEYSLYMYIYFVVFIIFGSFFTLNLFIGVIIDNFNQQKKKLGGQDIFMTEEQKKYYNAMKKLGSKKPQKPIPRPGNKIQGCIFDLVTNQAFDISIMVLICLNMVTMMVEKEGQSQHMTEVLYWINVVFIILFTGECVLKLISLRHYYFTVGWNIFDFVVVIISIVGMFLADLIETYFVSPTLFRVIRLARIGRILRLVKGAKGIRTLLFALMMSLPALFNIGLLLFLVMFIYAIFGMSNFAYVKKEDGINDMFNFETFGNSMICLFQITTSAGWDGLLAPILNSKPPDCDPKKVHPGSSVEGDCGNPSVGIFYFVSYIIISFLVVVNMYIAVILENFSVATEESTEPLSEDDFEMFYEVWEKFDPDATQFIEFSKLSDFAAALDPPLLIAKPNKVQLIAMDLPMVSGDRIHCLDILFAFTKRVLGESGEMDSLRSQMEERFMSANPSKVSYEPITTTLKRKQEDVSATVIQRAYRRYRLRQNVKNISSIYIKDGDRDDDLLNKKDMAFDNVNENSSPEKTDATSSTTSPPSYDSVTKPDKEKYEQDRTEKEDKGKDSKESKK
T2 sequence (Q07699 19-218 partner): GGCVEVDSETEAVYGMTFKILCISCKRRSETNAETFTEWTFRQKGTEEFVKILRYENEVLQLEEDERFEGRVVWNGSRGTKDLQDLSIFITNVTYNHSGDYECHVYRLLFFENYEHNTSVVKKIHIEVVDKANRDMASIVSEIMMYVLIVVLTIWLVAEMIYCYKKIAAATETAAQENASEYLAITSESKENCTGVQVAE
T2 sequence (O60939 30-215 partner): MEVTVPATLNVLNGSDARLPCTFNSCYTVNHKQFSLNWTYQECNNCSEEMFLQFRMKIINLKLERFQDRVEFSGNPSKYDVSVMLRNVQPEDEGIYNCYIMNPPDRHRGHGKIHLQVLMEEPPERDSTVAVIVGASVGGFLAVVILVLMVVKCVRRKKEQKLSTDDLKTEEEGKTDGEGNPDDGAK
T1 sequence (Q15858 whole entry): as the sequence (Q15858 whole entry) above
T1 sequence (Q07699 19-218 partner): as the sequence (Q07699 19-218 partner) above
T1 sequence (O60939 30-215 partner): as the sequence (O60939 30-215 partner) above

| SMILES | IC50 [1] [nM] | IC50 [2] [nM] | inhibition at 1 hour, 6 µM [3] [%] |
| --- | --- | --- | --- |
| CC(NC(=O)c1cc(-c2cc(Cl)ccc2Oc2cc(F)c(S(=O)(=O)Nc3ncns3)cc2Cl)ccn1)C(=O)O (racemic) [Compound 5, 2-(4-(2-(4-(N-(1,2,4-thiadiazol-5-yl)sulfamoyl)-2-chloro-5-fluorophenoxy)-5-chlorophenyl)picolinamido)propanoic acid] | < 100 | 130 to 1000 | 25 to 50 |
| O=C(O)CCCCNC(=O)c1cc(-c2cc(Cl)ccc2Oc2cc(F)c(S(=O)(=O)Nc3ncns3)cc2Cl)ccn1 [Compound 3, 5-(4-(2-(4-(N-(1,2,4-thiadiazol-5-yl)sulfamoyl)-2-chloro-5-fluorophenoxy)-5-chlorophenyl)picolinamido)pentanoic acid] |  | < 130 | 50 to 100 |
| O=C(O)CCCNC(=O)c1cc(-c2cc(Cl)ccc2Oc2cc(F)c(S(=O)(=O)Nc3ncns3)cc2Cl)ccn1 [Compound 4, 4-(4-(2-(4-(N-(1,2,4-thiadiazol-5-yl)sulfamoyl)-2-chloro-5-fluorophenoxy)-5-chlorophenyl)picolinamido)butanoic acid] |  | 130 to 1000 | 50 to 100 |
| C[C@@H](NC(=O)c1cc(-c2cc(Cl)ccc2Oc2cc(F)c(S(=O)(=O)Nc3ncns3)cc2Cl)ccn1)C(=O)O [Compound 6, (R)-2-(4-(2-(4-(N-(1,2,4-thiadiazol-5-yl)sulfamoyl)-2-chloro-5-fluorophenoxy)-5-chlorophenyl)picolinamido)propanoic acid] | < 100 | 130 to 1000 | 25 to 50 |
| C[C@H](NC(=O)c1cc(-c2cc(Cl)ccc2Oc2cc(F)c(S(=O)(=O)Nc3ncns3)cc2Cl)ccn1)C(=O)O [Compound 8, (S)-2-(4-(2-(4-(N-(1,2,4-thiadiazol-5-yl)sulfamoyl)-2-chloro-5-fluorophenoxy)-5-chlorophenyl)picolinamido)propanoic acid] | < 100 | 130 to 1000 | 25 to 50 |
| N#Cc1cc(S(=O)(=O)Nc2ncns2)ccc1Oc1ccc(Cl)cc1-c1ccnc(C(=O)NCCC(=O)O)c1 [Compound 9, 3-(4-(2-(4-(N-(1,2,4-thiadiazol-5-yl)sulfamoyl)-2-cyanophenoxy)-5-chlorophenyl)picolinamido)propanoic acid] |  | 130 to 1000 | 0 to 25 |
| O=C(O)CCNC(=O)c1cc(-c2cc(Cl)ccc2Oc2cc(F)c(S(=O)(=O)Nc3ncns3)cc2F)ccn1 [Compound 10, 3-(4-(2-(4-(N-(1,2,4-thiadiazol-5-yl)sulfamoyl)-2,5-difluorophenoxy)-5-chlorophenyl)picolinamido)propanoic acid] |  | 130 to 1000 | 25 to 50 |
| O=C(O)CNCCCc1cc(Cl)ccc1Oc1cc(F)c(S(=O)(=O)Nc2cscn2)cc1Cl [Compound 11, 2-((3-(5-chloro-2-(2-chloro-5-fluoro-4-(N-(thiazol-4-yl)sulfamoyl)phenoxy)phenyl)propyl)amino)acetic acid] | < 100 |  | 0 to 25 |
| O=C(O)CNCCCc1cc(Cl)ccc1Oc1cc(F)c(S(=O)(=O)Nc2nccs2)cc1Cl [Compound 13, 2-((3-(5-chloro-2-(2-chloro-5-fluoro-4-(N-(thiazol-2-yl)sulfamoyl)phenoxy)phenyl)propyl)amino)acetic acid] | < 100 | < 130 | 0 to 25 |
| O=C(O)C1CCN(CCCc2cc(Cl)ccc2Oc2cc(F)c(S(=O)(=O)Nc3cscn3)cc2Cl)CC1 [Compound 14, 1-(3-(5-chloro-2-(2-chloro-5-fluoro-4-(N-(thiazol-4-yl)sulfamoyl)phenoxy)phenyl)propyl)piperidine-4-carboxylic acid] | 100 to 1000 | 1000 to 20000 | 0 to 25 |
| NC1(C(=O)O)CCN(CCCc2cc(Cl)ccc2Oc2cc(F)c(S(=O)(=O)Nc3cscn3)cc2Cl)CC1 [Compound 16, 4-amino-1-(3-(5-chloro-2-(2-chloro-5-fluoro-4-(N-(thiazol-4-yl)sulfamoyl)phenoxy)phenyl)propyl)piperidine-4-carboxylic acid] | < 100 | < 130 | 25 to 50 |
| NC(CCNCCCc1cc(Cl)ccc1Oc1cc(F)c(S(=O)(=O)Nc2cscn2)cc1Cl)C(=O)O (centres unmarked) [Compound 17, 2-amino-4-((3-(5-chloro-2-(2-chloro-5-fluoro-4-(N-(thiazol-4-yl)sulfamoyl)phenoxy)phenyl)propyl)amino)butanoic acid] | 100 to 1000 | 1000 to 20000 | 0 to 25 |
| O=C(O)CNCCCc1cc(Cl)ccc1Oc1cc(F)c(S(=O)(=O)Nc2nccs2)cc1F [Compound 18, 2-((3-(5-chloro-2-(2,5-difluoro-4-(N-(thiazol-2-yl)sulfamoyl)phenoxy)phenyl)propyl)amino)acetic acid] | 100 to 1000 | 130 to 1000 | 0 to 25 |
| O=C(O)C1CCCN(CCCc2cc(Cl)ccc2Oc2cc(F)c(S(=O)(=O)Nc3cscn3)cc2Cl)C1 (centres unmarked) [Compound 19, 1-(3-(5-chloro-2-(2-chloro-5-fluoro-4-(N-(thiazol-4-yl)sulfamoyl)phenoxy)phenyl)propyl)piperidine-3-carboxylic acid] | 100 to 1000 | 1000 to 20000 | 0 to 25 |
| O=C(O)CNCCCc1ccccc1Oc1cc(F)c(S(=O)(=O)Nc2ncns2)cc1Cl [Compound 20, 2-((3-(2-(4-(N-(1,2,4-thiadiazol-5-yl)sulfamoyl)-2-chloro-5-fluorophenoxy)phenyl)propyl)amino)acetic acid] | < 100 | 130 to 1000 | 50 to 100 |
| NC(=O)CCNCCCc1cc(Cl)ccc1Oc1cc(F)c(S(=O)(=O)Nc2cscn2)cc1Cl [Compound 26, 3-((3-(5-chloro-2-(2-chloro-5-fluoro-4-(N-(thiazol-4-yl)sulfamoyl)phenoxy)phenyl)propyl)amino)propanamide] | < 100 | < 130 |  |
| O=C(O)CC1CCN(CCCc2cc(Cl)ccc2Oc2cc(F)c(S(=O)(=O)Nc3ncns3)cc2Cl)CC1 [Compound 28, 2-(1-(3-(2-(4-(N-(1,2,4-thiadiazol-5-yl)sulfamoyl)-2-chloro-5-fluorophenoxy)-5-chlorophenyl)propyl)piperidin-4-yl)acetic acid] | < 100 | 130 to 1000 |  |
| CCOC(=O)N(CCCc1cc(Cl)ccc1Oc1cc(F)c(S(=O)(=O)Nc2nccs2)cc1Cl)CC(=O)O [Compound 34, 2-((3-(5-chloro-2-(2-chloro-5-fluoro-4-(N-(thiazol-2-yl)sulfamoyl)phenoxy)phenyl)propyl)(ethoxycarbonyl)amino)acetic acid] | 100 to 500 | 500 to 1000 |  |
| CN(CCCc1cc(Cl)ccc1Oc1cc(F)c(S(=O)(=O)Nc2cscn2)cc1Cl)CC(=O)O [Compound 47, 2-((3-(5-chloro-2-(2-chloro-5-fluoro-4-(N-(thiazol-4-yl)sulfamoyl)phenoxy)phenyl)propyl)(methyl)amino)acetic acid] | 1000 to 10000 | 1000 to 20000 |  |
| COC(=O)CN(C)CCCc1cc(Cl)ccc1Oc1cc(F)c(S(=O)(=O)Nc2cscn2)cc1Cl [Compound 52, methyl 2-((3-(5-chloro-2-(2-chloro-5-fluoro-4-(N-(thiazol-4-yl)sulfamoyl)phenoxy)phenyl)propyl)(methyl)amino)acetate] | 100 to 500 | 1000 to 20000 |  |
